From publication PMC8165744, “Identification of an Alternative Glycyrrhizin Metabolite Causing Liquorice-Induced Pseudohyperaldosteronism and the Development of ELISA System to Detect the Predictive Biomarker” (Frontiers in Pharmacology, 2021)

Assays:
[1] = tested on: rat kidney slices; assay: uptake into rat kidney slices; type: in vitro ADME, Sprague-Dawley (SD) rats; conditions: SD rat kidney slices incubated with pooled EHBR plasma for 2 h; p < 0.01
From the text: Uptake of Compound 4 by Rat Kidney Slices and Cells Expressing OAT1 and 3
For the uptake study of 4 into rat kidney slices, we used the samples obtained in our previous study ([Ishiuchi et al., 2019]). For the uptake study of 4 into the cells transiently expressing OAT1 and OAT3, we used the same protocol as in our previous study ([Makino et al., 2012]). cDNAs encoding human OAT1 and OAT3 inserted into pGH19 were generously supplied by Prof. Mitsuru Sugawara (Hokkaido University, Sapporo, Japan), and then subcloned into a pCI-neo mammalian expression vector (Promega, Madison, WI, United States). We used the same pooled plasma of male EHBRs orally treated with GA for 12 h used in our previous study ([Ishiuchi et al., 2019]).
FIGURE 2 Inhibitory effects of compound 4 on type-2 11β-hydroxysteroid dehydrogenase (11β-HSD2) using rat kidney microsome (A), and the uptake of 4 into rat kidney slices (B) or into HEK293 cells transfected with organic anion transporter (OAT) 1 (C) or OAT3 (D). […] Then, the amount of [^3H] cortisol was measured. […] Concentrations of 4 in kidney slice homogenates were measured using liquid chromatography-tandem mass spectrometry (LC-MS/MS). **p < 0.01 vs 4°C group using Student’s t-test (C) Male EHBRs were orally treated with GA (200 mg/kg) and their plasma samples were collected […] after treatment. […] Then, concentrations of 4 in cells were measured using LC-MS/MS. […]

[2] = binding of compound 4 to albumin in pooled EHBR plasma (ultrafiltration); type: in vitro ADME, Eisai hyperbilirubinuria rats (EHBRs); conditions: female, Eisai hyperbilirubinuria rat (EHBR), rat, 200 mg/kg; pooled plasma of EHBRs 12 h after oral GA
Experimental: (§1) Binding of Compound 4 to Albumin
(§2) We measured the binding ratios of 4 to albumin in pooled plasma of female EHBRs using the same protocol used in our previous study ([Ishiuchi et al., 2019]).
(§3) The pooled plasma samples collected from EHBRs 12 h after oral treatment with GA were loaded into ultracentrifuge filters with a 1 × 10^4 molecular weight cut-off and concentrated by centrifugation. The concentrations of 4 in the pooled plasma and the filtrate were 77 µM and undetectable, respectively. Based on the detection limits (3.2 nM) in the LC-MS/MS analysis, the albumin-binding ratios of 4 in the plasma was calculated to be more than 99.9%.

[3] = biological target: T1, albumin (Rattus norvegicus, UniProt P02770); assay: as above; type: in vitro ADME, Eisai hyperbilirubinuria rats (EHBRs)
T1 construct: from tissue; host or cells: pooled plasma of EHBRs orally treated with GA
T1 sequence (P02770 25-608): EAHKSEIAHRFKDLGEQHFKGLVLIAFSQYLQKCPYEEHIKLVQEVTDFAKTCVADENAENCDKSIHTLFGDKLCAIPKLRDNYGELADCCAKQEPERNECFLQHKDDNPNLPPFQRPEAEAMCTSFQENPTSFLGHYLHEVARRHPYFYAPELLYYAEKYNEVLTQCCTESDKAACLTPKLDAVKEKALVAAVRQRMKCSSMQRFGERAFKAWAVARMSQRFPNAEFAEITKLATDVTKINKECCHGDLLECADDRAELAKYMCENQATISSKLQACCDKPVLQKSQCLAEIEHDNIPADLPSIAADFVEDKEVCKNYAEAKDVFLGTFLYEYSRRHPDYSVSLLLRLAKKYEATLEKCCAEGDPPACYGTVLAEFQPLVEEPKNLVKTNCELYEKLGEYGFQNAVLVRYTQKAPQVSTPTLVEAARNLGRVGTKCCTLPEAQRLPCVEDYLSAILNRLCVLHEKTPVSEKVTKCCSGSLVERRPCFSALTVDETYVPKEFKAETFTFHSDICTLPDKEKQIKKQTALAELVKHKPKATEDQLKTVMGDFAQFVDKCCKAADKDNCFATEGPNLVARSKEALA
Experimental: as §1, §2, §3

[4] = pharmacokinetics of GA metabolites in EHBRs orally treated with GA; type: in vivo, Eisai hyperbilirubinuria rats (EHBRs); conditions: Eisai hyperbilirubinuria rat (EHBR), rat, plasma, 200 mg/kg, GA 0.20 g/kg oral, read-out: plasma concentration 12 h after oral administration of GA
Experimental: Pharmacokinetic Experiments of GA Metabolites in EHBRs Orally Treated With GA
Male and female EHBRs (9 week-old) were anaesthetized by an intraperitoneal injection of urethane (1 g/kg) and their jugular veins were exposed. GA suspended in 0.5% carboxymethylcellulose was then administered orally (200 mg/kg) to the unconscious rats, and blood samples were collected from the jugular vein while urine samples were collected using a metabolic cage at appropriate times over a 12 h period.
LC-MS/MS Analysis for GA Metabolites
Briefly, after diluting serum and urine samples with water to obtain suitable concentrations, they were digested with subtilisin (0.91 U/ml), followed by the addition of astragaloside IV (used as an internal standard; Fujifilm Wako Pure Chemicals, Osaka, Japan), and deproteinized using 80% ethanol. […] The transitions (precursor to daughter) monitored and retention times were as follows: ESI(+), 743.4 to 567.5 m/z (35 and 25 V for cone voltage and collision energy, respectively) for compound 1 (8.1 min); ESI(–), 565.5 to 96.5 m/z (80 and 60 V) for 2 (9.6 min); ESI(–), 549.5 to 96.5 m/z (80 and 60 V) for 3 (15.4 min); ESI(+), 727.3 to 551.2 m/z (30 and 25 V) for 4 (11.3 min); ESI(+), 647.6 to 453.6 m/z (40 and 20 V) for 3MGA (15.0 min); ESI(+), 471.3 to 91.0 m/z (40 and 20 V) for GA (13.4 min); ESI(+), 823.5 to 453.6 m/z (30 and 20 V) for GL (18.4 min); and ESI(+), 785.4 to 143.0 m/z (30 and 20 V) for astragaloside IV (3.0 min). Linear regressions over the concentration range of 2 nM to 2 µM for each compound were examined using the peak-area ratio of the compounds to their internal standards and the least-squares method (r ^ 2 > 0.98). The detection limits for 1, GL, and GA were 6.4 nM, and those for 2, 3, and 4, and 3MGA were 3.2 nM.
FIGURE 5 Pharmacokinetic profiles of glycyrrhizin (GL) metabolites in female (A–C) and male (D–F) Eisai hyperbilirubinuria rats (EHBRs). […] Data of GA, 3MGA, 1, 2, and 3 in (A) and GA, 3MGA, 2, and 3 for (D) are relatively small; their magnified graphs are shown in (B,E), respectively. Concentrations of GA metabolites were measured using liquid chromatography-tandem mass spectrometry (LC-MS/MS), and data are means ± standard error (S.E: n = 4).

With `CC1(C)[C@@H](OS(=O)(=O)O)CC[C@]2(C)[C@H]3C(=O)C=C4[C@@H]5C[C@@](C)(C(=O)O[C@@H]6O[C@H](C(=O)O)[C@@H](O)[C@H](O)[C@H]6O)CC[C@]5(C)CC[C@@]4(C)[C@]3(C)CC[C@@H]12` [Compound 4, 18β-glycyrrhetyl-3-O-sulfate-30-O-glucuronide] the “uptake by kidney slices, 37°C vs 4°C” value [1] was “significantly higher at 37 °C”, the concentration at 12 h [2] was 77 µM and the “albumin-binding ratio in plasma” value ([3]; pooled EHBR plasma, 1 × 10^4 MW cut-off filter, calculated from detection limit 3.2 nM) was “more than 99.9%”. The concentration in filtrate ([3]; ultracentrifuge filtrate of pooled EHBR plasma) was “undetectable”, the concentration at 12 h ([4]; female EHBRs) was 208 µM and the concentration at 12 h ([4]; male EHBRs) was 237 µM.
